Source: patent US20160229835A1, “NOVEL PYRIDYLOXYACETYL TETRAHYDROISOQUINOLINE COMPOUNDS USEFUL AS NAMPT INHIBITORS” (ELI LILLY AND COMPANY, priority 2013, published 2016)
Read-outs that look alike come from different tables or passages of the source.

Tests used:
786-0 = assay: Cell Proliferation Assay ±NA, 786-0; format: cell-based; settings: Homo sapiens, 786-0, kidney, treatment time 48 hr
Description: (§1) The purpose of this assay is to measure the ability of a compound to inhibit proliferation of endometrium, kidney, adrenal gland, and autonomic ganglia cancer cell lines dependent on the NAMPT-mediated NAD^+ formation in the presence or absence of NA (10 μM) in vitro. One day before the planned initiation of compound treatment portion of the assay, one vial of assay ready frozen cells is thawed, and the cells are grown overnight in the media as shown in Table 3 under 5% CO2 at 37° C. Then, the cell layer is briefly rinsed with 0.25% (w/v) Trypsin-0.038% (w/v) EDTA solution followed with the addition of 3.0 ml of Trypsin-EDTA solution. Once the cell layer is dispersed, 8.0 ml of complete growth medium (Table 3) is added and cells are aspirated by gently pipetting. The cell suspension is transferred to a centrifuge tube and centrifuged at 800-1000 rpm for 3-5 minutes. The supernatant is discarded using a vacuum pump. The cell pellet is suspended in a complete medium by gently pipetting. The cell numbers are counted and adjusted to the appropriate density (Table 3). […] The bottom of each plate is pasted with a white back seal and luminescence is recorded using a Flexstation 3 with the following settings: Luminescence and integration time of 500 ms.

A704 = assay: Cell Proliferation Assay ±NA, A704; format: cell-based; settings: Homo sapiens, A704, kidney, treatment time 72 hr
Description: as §1

[1] = system: NAMPT-mediated NAD+ formation in A2780 tumors; assay: IVTI Assay (NAD+ formation in A2780 tumors); format: in vivo; settings: A2780 xenograft, female nude mice, oral gavage, after 2 doses (7 hours after second dose); ± SE
Description: The purpose of this assay is to measure the ability of a test compound to inhibit the NAMPT-mediated NAD^+ formation in tumors in an animal model. A2780 cells (ATCC) are grown as described above for the NAD^+ assay (Assay for NAD^+/NMN Levels in A2780 Cells). The cells (5×10^6/animal) are mixed with MATRIGEL® (1:1) and implanted subcutaneously into the rear flank of the mice (female nude mice, Harlan). The implanted tumor cells grow as solid tumors. The tumor volume and body weight are measured twice a week with a caliper. After tumor volume reaches approximately 300-500 mm^3, animals are randomized and grouped into positive control (described herein; 5 animals/group) and compound treatment groups (5 animals/group). The compound (formulated in 20% of CAPTISOL® and 25 mM of phosphate buffer, pH 2) and positive control (20% of CAPTISOL® and 25 mM of phosphate buffer, pH 2) are administered by oral gavage. Compound doses are in the range of 0.10 to 25 mg/kg. […] The resulting preparations (0.5 mL each) are filtered (with a 10K cutoff filter) to remove hemoglobin because red color interferes with the absorbance. […] NAD^+ quantitation is carried out using a NAD^+/NADH cycling assay kit (BioVision, cat#337-100-1). […] The percent inhibition of compound treated groups is calculated relative to the minimum inhibition groups. […]

HEC-1-A = assay: Cell Proliferation Assay ±NA, HEC-1-A; format: cell-based; settings: Homo sapiens, endometrium, treatment time 72 hr, tested in a growth medium containing nicotinic acid
Description: as §1

COLO-684 = assay: Cell Proliferation Assay ±NA, COLO-684; format: cell-based; settings: Homo sapiens, COLO-684, endometrium, treatment time 72 hr
Description: as §1

U031 = assay: Cell Proliferation Assay ±NA, U031; format: cell-based; settings: U031, kidney, treatment time 72 hr
Description: as §1

[2] = NA 0.0 μM, read-out: IC50 (μM) NA (0.0 μM)
[3] = NA 10 μM, read-out: IC50 (μM) NA (10 μM)

IC50 (786-0; [2]): 0.07 µM | IC50 (786-0; [3]): 0.04 µM | IC50 (COLO-684; [2]): 0.03 µM | IC50 (COLO-684; [3]): > 2 µM
Structure (SMILES): CC(C)(O)CS(=O)(=O)Nc1ccc2c(c1)CCN(C(=O)COc1cccnc1)C2 [Example 1, 2-Hydroxy-2-methyl-N-[2-[2-(3-pyridyloxy)acetyl]-3,4-dihydro-1H-isoquinolin-6-yl]propane-1-sulfonamide]
IC50 (A704; [2]): 0.37 µM | IC50 (A704; [3]): > 2 µM | TED50 (dose for 50% inhibition of NAD+ formation in tumor) [1]: 2.56 ± 0.37 mg/kg | IC50 (HEC-1-A; [2]): > 2 µM | IC50 (HEC-1-A; [3]): > 2 µM | IC50 (U031; [2]): 0.06 µM | IC50 (U031; [3]): 0.06 µM
